Measurements published in US8778973B2, “Alkene oxindole derivatives” (Hoffmann-La Roche Inc., priority 2009, dated 2014).

system: Recombinant human AMPK proteins (α1β1γ1, α2β1γ1, α1(1-335), α1(1-394) or α2(1-394)); experiment: Scintillation Proximity Assay (SPA) of AMPK activation; type: biochemical; details: activator concentration for 50% of maximal enzyme activity; 50 nM recombinant AMPK, 2 μM ATP, 30° C., 2 hr
Description: Recombinant human AMPK α1β1γ1, α2β1γ1 or AMPK α subunit truncations α1(1-335), α1(1-394) and α2(1-394) were constructed, expressed and purified as described previously (Pang, T., Zhang, Z. S., Gu, M., Qiu, B. Y., Yu, L. F., Cao, P. R., Shao, W., Su, M. B., Li, J. Y., Nan, F. J., and Li, J. (2008)). Rat liver AMPK heterotrimer enzyme was obtained from Upstate (Billerica, Mass., U.S.A.).
Scintillation Proximity Assay
Before the Scintillation Proximity Assay (SPA) assay, 200 nM recombinant AMPK proteins (α1β1γ1, α2β1γ1, α1(1-335), α1(1-394) or α2(1-394)) were fully phosphorylated as described previously (Pang et al., 2008). SPA reactions were performed in 96-well plates at a final volume of 501 containing 20 mM Tris-HCl pH 7.5, 5 mM MgCl2, 1 mM DTT, 2 μM biotin-SAMS, 2 μM ATP, 0.2 μCi/well [γ-^33P]ATP, and various amount of activator. Reactions were initiated by the addition of 50 nM recombinant AMPK proteins to the reaction solutions and incubated at 30° C. for 2 hr. After that, reactions were terminated by the addition of 401 stop solution containing 80 μg streptavidin-coated SPA beads per well, 50 mM EDTA, 0.1% Triton X-100 in PBS, pH 7.5 and incubated for 1 hr. Finally, a 160 ul suspension solution containing 2.4 M CsCl, 50 mM EDTA, and 0.1% Triton X-100 in PBS (pH 7.5) was added to the reaction solution to suspend SPA beads completely. SPA signals were determined with a Wallac MicroBeta plate counter (PerkinElmer) 30 min later for calculation of the amount of product formed. The amount of products formed in 2 hr was plotted against activator concentrations to determine the effective concentration of the activator (EC50) required for 50% of maximal enzyme activity.
Compounds as described above have EC50 values between 0.5 uM and 50 uM, preferred compounds have EC50 values between 0.5 uM and 10 uM, particularly preferred compounds have EC50 values between 0.5 uM and 1 uM.

SMILES	EC50 [nM]
O=C(O)c1cccc(CN2C(=O)/C(=C(/c3ccccc3)c3ccc(Cl)cc3)c3ccccc32)c1 [Example 68, 3-{3-[1-(4-Chloro-phenyl)-1-phenyl-meth-(Z)-ylidene]-2-oxo-2,3-dihydro-indol-1-ylmethyl}-benzoic acid]	2120
COC(=O)c1cc(N2C(=O)/C(=C(\C)c3ccccc3)c3ccccc32)ccc1C [Example 3, 2-Methyl-5-{2-oxo-3-[1-phenyl-eth-(E)-ylidene]-2,3-dihydro-indol-1-yl}-benzoic acid methyl ester]	5610
COC(=O)c1cccc(CN2C(=O)/C(=C(\c3ccccc3)c3ccc(Cl)cc3)c3ccc(F)cc32)c1 [Example 26, 3-{3-[1-(4-Chloro-phenyl)-1-phenyl-meth-(E)-ylidene]-6-fluoro-2-oxo-2,3-dihydro-indol-1-ylmethyl}-benzoic acid methyl ester]	1250
COC(=O)c1cccc(CN2C(=O)/C(=C(\CC(C)(C)C)c3ccccc3)c3ccccc32)c1 [Example 80, 3-{3-[3,3-Dimethyl-1-phenyl-but-(E)-ylidene]-2-oxo-2,3-dihydro-indol-1-ylmethyl}-benzoic acid methyl ester]	5800
C/C(=C1\C(=O)N(CC(=O)O)c2ccccc21)c1ccccc1 [Example 4, [2-Oxo-3-(1-phenyl-ethylidene)-2,3-dihydro-indol-1-yl]-acetic acid]	5250
O=C(O)c1csc(CN2C(=O)/C(=C(\c3ccccc3)c3ccc(Cl)cc3)c3ccccc32)n1 [Example 76, 2-{3-[1-(4-Chloro-phenyl)-1-phenyl-meth-(E)-ylidene]-2-oxo-2,3-dihydro-indol-1-ylmethyl}-thiazole-4-carboxylic acid]	5140
COC(=O)c1cccc(CN2C(=O)/C(=C(/CC(C)(C)C)c3ccccc3)c3ccccc32)c1 [Example 78, 3-{3-[3,3-Dimethyl-1-phenyl-but-(Z)-ylidene]-2-oxo-2,3-dihydro-indol-1-ylmethyl}-benzoic acid methyl ester]	1600
COC(=O)c1cccc(CN2C(=O)/C(=C(\c3ccccc3)c3ccc(Cl)cc3)c3cccc(F)c32)c1 [Example 6, 3-{3-[1-(4-Chloro-phenyl)-1-phenyl-meth-(E)-ylidene]-7-fluoro-2-oxo-2,3-dihydro-indol-1-ylmethyl}-benzoic acid methyl ester]	1510
O=C(O)c1cccc(CN2C(=O)/C(=C(\c3ccccc3)c3ccc(Cl)cc3)c3cc(Cl)ccc32)c1 [Example 74, 3-{5-Chloro-3-[1-(4-chloro-phenyl)-1-phenyl-meth-(E)-ylidene]-2-oxo-2,3-dihydro-indol-1-ylmethyl}-benzoic acid]	3170
COC(=O)c1cccc(CN2C(=O)C(=C(c3ccccc3)c3ccccc3)c3ccccc32)c1 [Example 7, 3-(3-Benzhydrylidene-2-oxo-2,3-dihydro-indol-1-ylmethyl)-benzoic acid methyl ester]	1540
O=C1/C(=C(/c2ccccc2)c2ccc(Cl)cc2)c2ccccc2N1Cc1cc(O)c(O)c(O)c1 [Example 42, 3-[1-(4-Chloro-phenyl)-1-phenyl-meth-(Z)-ylidene]-1-(3,4,5-trihydroxy-benzyl)-1,3-dihydro-indol-2-one]	4500
COC(=O)c1cccc(CN2C(=O)/C(=C(\c3ccccc3)c3ccc(Cl)cc3)c3cc(OC)ccc32)c1 [Example 22, 3-{3-[1-(4-Chloro-phenyl)-1-phenyl-meth-(E)-ylidene]-5-methoxy-2-oxo-2,3-dihydro-indol-1-ylmethyl}-benzoic acid methyl ester]	4130
COC(=O)c1cccc(CN2C(=O)/C(=C(\c3ccccc3)c3ccc(Cl)cc3)c3ccccc32)c1 [Example 5, 3-((3-((4-Chlorophenyl)(phenyl)meth-(E)-ylene)-2-oxoindolin-1-yl)methyl)benzoic acid methyl ester]	2300
COC(=O)c1cccc(CN2C(=O)/C(=C(\c3ccccc3)c3cccc(C(F)(F)F)c3)c3ccccc32)c1 [Example 30, 3-{2-Oxo-3-[1-phenyl-1-(3-trifluoromethyl-phenyl)-meth-(E)-ylidene]-2,3-dihydro-indol-1-ylmethyl}-benzoic acid methyl ester]	1650
COC(=O)Cc1cccc(N2C(=O)/C(=C(\C)c3ccccc3)c3ccccc32)c1 [Example 2, (3-{2-Oxo-3-[1-phenyl-eth-(E)-ylidene]-2,3-dihydro-indol-1-yl}-phenyl)-acetic acid methyl ester]	1490
CCOC(=O)c1csc(CN2C(=O)/C(=C(\c3ccccc3)c3ccc(Cl)cc3)c3ccccc32)n1 [Example 39, 2-{3-[1-(4-Chloro-phenyl)-1-phenyl-meth-(E)-ylidene]-2-oxo-2,3-dihydro-indol-1-ylmethyl}-thiazole-4-carboxylic acid ethyl ester]	1570
COC(=O)c1cccc(CN2C(=O)/C(=C(\c3ccccc3)c3cccc(Br)c3)c3ccccc32)c1 [Example 27, 3-{3-[1-(3-Bromo-phenyl)-1-phenyl-meth-(E)-ylidene]-2-oxo-2,3-dihydro-indol-1-ylmethyl}-benzoic acid methyl ester]	2730
NS(=O)(=O)c1ccc(/C(=C2/C(=O)N(Cc3cccc(C(=O)O)c3)c3ccccc32)c2ccccc2)cc1 [Example 67, 3-{2-Oxo-3-[1-phenyl-1-(4-sulfamoyl-phenyl)-meth-(E)-ylidene]-2,3-dihydro-indol-1-ylmethyl}-benzoic acid]	1270
O=C(O)c1cccc(CN2C(=O)/C(=C(\c3ccccc3)c3ccc(Cl)cc3)c3ccccc32)c1 [Example 44, 3-{3-[1-(4-Chloro-phenyl)-1-phenyl-meth-(E)-ylidene]-2-oxo-2,3-dihydro-indol-1-ylmethyl}-benzoic acid]	1210
COC(=O)c1cccc(CN2C(=O)/C(=C(\c3ccccc3)c3ccsc3)c3ccccc32)c1 [Example 33, 3-{2-Oxo-3-[1-phenyl-1-thiophen-3-yl-meth-(E)-ylidene]-2,3-dihydro-indol-1-ylmethyl}-benzoic acid methyl ester]	5560
O=C(O)COc1ccc(CN2C(=O)/C(=C(\c3ccccc3)c3ccc(Cl)cc3)c3ccccc32)cc1 [Example 70, (4-{3-[1-(4-Chloro-phenyl)-1-phenyl-meth-(E)-ylidene]-2-oxo-2,3-dihydro-indol-1-ylmethyl}-phenoxy)-acetic acid]	4960
COC(=O)c1cccc(CN2C(=O)/C(=C(\c3ccccc3)c3ccc(C)cc3)c3ccccc32)c1 [Example 9, 3-{2-Oxo-3-[1-phenyl-1-p-tolyl-meth-(E)-ylidene]-2,3-dihydro-indol-1-ylmethyl}-benzoic acid methyl ester]	2160
O=C(O)c1cccc(CN2C(=O)/C(=C(\c3ccccc3)c3cccc(Cl)c3Cl)c3ccccc32)c1 [Example 55, 3-{3-[1-(2,3-Dichloro-phenyl)-1-phenyl-meth-(E)-ylidene]-2-oxo-2,3-dihydro-indol-1-ylmethyl}-benzoic acid]	2940
COC(=O)c1cccc(CN2C(=O)/C(=C(\c3ccccc3)c3ccc(C(F)(F)F)cc3)c3ccccc32)c1 [Example 12, 3-{2-Oxo-3-[1-phenyl-1-(4-trifluoromethyl-phenyl)-meth-(E)-ylidene]-2,3-dihydro-indol-1-ylmethyl}-benzoic acid methyl ester]	5340
COC(=O)c1cccc(CN2C(=O)/C(=C(/c3ccc(C(F)(F)F)cc3)C(C)C)c3ccccc32)c1 [Example 88, 3-{3-[2-Methyl-1-(4-trifluoromethyl-phenyl)-prop-(E)-ylidene]-2-oxo-2,3-dihydro-indol-1-ylmethyl}-benzoic acid methyl ester]	2590
O=C(O)c1cccc(CN2C(=O)/C(=C(\c3ccccc3)c3ccc(F)cc3)c3ccccc32)c1 [Example 45, 3-{3-[1-(4-Fluoro-phenyl)-1-phenyl-meth-(E)-ylidene]-2-oxo-2,3-dihydro-indol-1-ylmethyl}-benzoic acid]	1890
COC(=O)c1cccc(CN2C(=O)/C(=C(\c3ccccc3)c3ccc(Cl)cc3)c3cc(F)cc(Cl)c32)c1 [Example 29, 3-{7-Chloro-3-[1-(4-chloro-phenyl)-1-phenyl-meth-(E)-ylidene]-5-fluoro-2-oxo-2,3-dihydro-indol-1-ylmethyl}-benzoic acid methyl ester]	2360
O=C(O)c1cccc(CN2C(=O)/C(=C(\c3ccccc3)c3cccnc3)c3ccccc32)c1 [Example 63, 3-{2-Oxo-3-[1-phenyl-1-pyridin-3-yl-meth-(E)-ylidene]-2,3-dihydro-indol-1-ylmethyl}-benzoic acid]	3240
